Patent US20260028390A1, “ALPHA1-ANTITRYPSIN FOR USE IN THE TREATMENT OF DISEASES OR DISORDERS OF THE NERVOUS SYSTEM SUCH AS CHRONIC INFLAMMATORY DEMYELINATING POLYNEUROPATHY” (Ageronix SA, priority 2022, published 2026)
Values joined by “and” are separate entries in the source; they are usually repeats but may differ in a detail not shown here. Equal entries are not always repeated.

Key:
IL-6 = experiment: Human IL-6 immunoassay on SH-SY5Y cell supernatant; format: cell-based; conditions: medium from cells treated with AAT vs 6-OHDA induced, not significant
Protocol: Cells were treated for 24 hours with the neurotoxin 6-hydroxydopamine (6-OHDA, Sigma Aldrich 162957) at 50, 100 μM concentrations alone or in combination with AAT 25 μM (AAT plasma derived, Sigma Aldrich batch A9024). Cells treated with AAT alone or in combination with 6-OHDA for 24 hours, were then incubated with fresh AAT for additional 24 hours. Control cells were treated with PBS.
Human 11-6 immunoassay (R&D D6050) was performed on cells supernatant. Briefly, 40000 cells were plated in 24-well plate and treated the day after as described in paragraph “Cells and treatment”. At the end of the treatment, cells were washed with PBS and incubated with 2% FBS medium for 24 hours, then cell culture supernatants were collected and centrifuged to remove particulates. Assay procedure was performed as described by manufactured instructions, on standard and samples duplicates. Absorbance was measured at 450 nm using SpectraMax iD3 Microplate Reader. A standard curve was prepared from seven IL-6 standard dilutions and IL-6 sample concentrations determined.

[1] = Body weight, CMT1A mouse study (AAT 50 mg/kg sc twice daily); format: in vivo
Source text: (§1) As a murine model of CMT1A we used C3-PMP22 transgenic mice (B6.Cg-Tg(PMP22)C3Fbas/J, The Jackson Laboratory) which express three copies of a wild-type human peripheral myelin protein 22 (PMP22) gene (Verhamme, Camiel, et al. Journal of Neuropathology & Experimental Neurology 70.5 (2011): 386-398). Mice were housed in macrolon cages with filter hoods, in a continuously air-filtered room, thereby avoiding contamination. During experiments, paired animals were caged at a constant temperature with a day/night cycle of 12/12 hours. Animals were fed (control tap water and nutrition) ad libitum. Animal protocol is approved by the Animal Studies Committee of Languedoc Roussillon. This protocol and the laboratory procedures comply with French legislation, which implements the European Directives (Reference Number: D3417223, APAFIS #23920-2020020320279696 v3). Animal health was followed on a daily basis to ensure that only animals in good health enter the testing procedures and follow up the study.
(§2) Animals were split in 3 groups (wild-type control (subcutaneous 0.9% NaCl), CMT1A-vehicle (subcutaneous 0.9% NaCl), CMT1A-human alpha-1 antitrypsin (subcutaneous, twice daily, 50 mg/kg per injection)) of 3 mice each (3 weeks old males of 18±2.5 g at the beginning of study) and all went through the following protocol after 7 days of acclimation on site.

[2] = tested on: C3-PMP22 transgenic mice (CMT1A); experiment: Rotarod test, CMT1A mouse study (50 mg/kg twice daily); format: in vivo; conditions: for Rotarod latency, Mean/animal / Rotarod latency, set 1, individual animals / Rotarod latency, set 2, individual animals / Rotarod latency, set 3, individual animals: CMT1A + AAT; for Rotarod latency (Mean ± SEM): CMT1A mice
Source text: as §1, §2
On the first and last day of treatment, the neuromuscular performance of animals was tested with a rotarod test, grip test and sciatic nerve electrophysiology test. After the last treatment at 8 weeks, these tests were repeated, and animals were sacrificed and the left sciatic nerve was sampled for histological evaluation of the number and size of […].
The rotarod test measures neuromuscular coordination by assessing the capacity of the animals to stay in balance on a rotating cylinder. Similar rotarod latency was observed between groups at the baseline (6 weeks old).

Substance: alpha1-antitrypsin (AAT) protein
- IL-6 in cell supernatant (IL-6): less concentration
- Body weight, MEAN ([1]; CMT1A + hAAT, 3rd column, head prints 6 weeks old, in g (unit assumed)): 19.73
- Body weight, individual mice ([1]; CMT1A + hAAT, 3rd column, head prints 6 weeks old, listed as hAAT, in g (unit assumed)): 19.6 and 20.5 and 19.1
- body weight loss in the AAT treated group compared to the vehicle group ([1]; CMT1A mice, 50 mg/kg sc twice daily, two weeks): no observable body weight loss
- Rotarod latency, Mean/animal ([2]; 6 weeks old (baseline)): 84.36 s and 71.19 s and 72.91 s
- Rotarod latency, set 1, individual animals ([2]; 6 weeks old (baseline)): 85.0 s and 51.4 s and 59.6 s
- Rotarod latency, set 2, individual animals ([2]; 6 weeks old (baseline)): 102.6 s and 93.4 s and 92.1 s
- Rotarod latency, set 3, individual animals ([2]; 6 weeks old (baseline)): 65.5 s and 68.8 s and 67.1 s
- Rotarod latency, Mean/animal ([2]; 8 weeks old): 49.76 s and 64.65 s and 56.12 s
- Rotarod latency, set 1, individual animals ([2]; 8 weeks old): 62.1 s and 83.2 s and 46.0 s
- Rotarod latency, set 2, individual animals ([2]; 8 weeks old): 35.7 s and 39.5 s and 46.0 s
- Rotarod latency, set 3, individual animals ([2]; 8 weeks old): 51.5 s and 71.3 s and 76.4 s
- rotarod latency compared to the control group ([2]; CMT1A mice treated with AAT, 8 weeks old): improvement
- Rotarod latency (Mean ± SEM) ([2]; 6 weeks old (baseline)): 76.15 ± 4.13 s
- Rotarod latency (Mean ± SEM) ([2]; 8 weeks old, AAT 50 mg/kg sc twice daily): 56.84 ± 4.31 s
